According to paper PMC6149822, “A New Series of Pyrrole-Based Chalcones: Synthesis and Evaluation of Antimicrobial Activity, Cytotoxicity, and Genotoxicity” (Molecules : A Journal of Synthetic Chemistry and Natural …, 2017):

Experiments:
Assay in all cases: ATP luminescence microbial cell viability assay
Conditions in all cases: 24 h treatment, result in words
C. krusei = format: cell-based, Candida krusei
Protocol: (§1) A model from BioTek Instruments Inc. combined with a BacTiter-Glo^TM Microbial Cell Viability assay (Promega Corp., Madison, WI, USA) was used to provide a sensitive and rapid method for determining the number of viable microbial cells in culture based on quantitation of the ATP present. […] After incubation, cultures were added into the wells (final concentration of bacteria was 5 × 10^5 CFU/mL and 2.5 × 10^6 CFU/mL for yeasts). After adding the BacTiter reagent, incubation time for bacteria and yeasts was 5 min and 15 min, respectively.
(§2) The assay generates a “glow-type” luminescent signal, produced by the luciferase reaction. Briefly, after chemicals and strains were incubated for 24 h, 100 µL of the culture was taken from each well and mixed with the same volume of the BacTiter-Glo™ reagent in a white, opaque-walled microtiter plate. Control wells containing medium without cells were prepared to obtain a value for background luminescence. Cells without compound were used as an ATP-positive control. The microplates were further incubated under agitation for 7 min. Bioluminescence was recorded in a multi-detection microplate reader (BioTek Synergy 2 Multi-Mode Microplate Reader, BioTek Instruments, Winooski, VT, USA). […] Experiments were performed in triplicate and each sample was measured in four replicates.

E. faecalis (ATCC 29212) = format: cell-based, Enterococcus faecalis
Protocol: as §1
(§3) The assay generates a “glow-type” luminescent signal, produced by the luciferase reaction. Briefly, after chemicals and strains were incubated for 24 h, 100 µL of the culture was taken from each well and mixed with the same volume of the BacTiter-Glo™ reagent in a white, opaque-walled microtiter plate. Control wells containing medium without cells were prepared to obtain a value for background luminescence. Cells without compound were used as an ATP-positive control. The microplates were further incubated under agitation for 7 min. Bioluminescence was recorded in a multi-detection microplate reader (BioTek Synergy 2 Multi-Mode Microplate Reader, BioTek Instruments, Winooski, VT, USA). In Figure 3, results were given as percentage of untreated control, which is set at 100%. Experiments were performed in triplicate and each sample was measured in four replicates.

C. albicans = format: cell-based, Candida albicans
Protocol: as §1, §2

C. glabrata = format: cell-based, Candida glabrata
Protocol: as §1, §3

| Structure (SMILES) | antifungal activity in ATP bioluminescence assay (C. krusei) | antimicrobial activity in ATP bioluminescence assay (E. faecalis (ATCC 29212)) | antifungal activity in ATP bioluminescence assay (C. albicans) | antifungal activity in ATP bioluminescence assay (C. glabrata) |
| --- | --- | --- | --- | --- |
| Cn1cccc1C(=O)C=Cc1ccc(-c2cc(Cl)ccc2Cl)o1 [Compound 9, 1-(1-Methyl-1H-pyrrol-2-yl)-3-(5-(2,5-dichlorophenyl)furan-2-yl)prop-2-en-1-one] | more statistically significant antifungal activity against C. krusei than ketoconazole |  |  |  |
| Cn1cccc1C(=O)C=Cc1ccc(-c2ccc(Cl)cc2)o1 [Compound 7, 1-(1-Methyl-1H-pyrrol-2-yl)-3-(5-(4-chlorophenyl)furan-2-yl)prop-2-en-1-one] | more statistically significant antifungal activity against C. krusei than ketoconazole | sensitive | no statistically significant effects | antifungal activity close to ketoconazole |
